Test results published in publication PMC4224963 (ChemMedChem, 2014).
Each block holds one compound with its values, some of them ahead of it.

Key:
[1] = target: T1, human NAAA (Homo sapiens, UniProt Q02083); test: Fluorogenic h-NAAA assay; format: biochemical
T1 sequence (Q02083 126-359 limits assumed): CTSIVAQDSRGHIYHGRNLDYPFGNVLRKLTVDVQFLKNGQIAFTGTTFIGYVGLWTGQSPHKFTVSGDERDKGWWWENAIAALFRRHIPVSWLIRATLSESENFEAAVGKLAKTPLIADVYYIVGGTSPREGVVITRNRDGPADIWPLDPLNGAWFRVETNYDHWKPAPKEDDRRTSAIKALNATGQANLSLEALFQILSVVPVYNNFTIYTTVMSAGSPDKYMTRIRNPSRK
T1 sequence (Q02083 29-125 limits assumed): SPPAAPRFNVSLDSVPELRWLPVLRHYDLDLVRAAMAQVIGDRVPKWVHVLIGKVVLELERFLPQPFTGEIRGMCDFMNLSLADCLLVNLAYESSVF

[2] = In vitro mouse plasma stability; format: in vitro ADME
[3] = In vitro rat plasma stability; format: in vitro ADME
[4] = test system: rat-NAAA (r-NAAA); conditions: read-out: r-NAAA IC50; ref 19a, 19c, 19d, 19f; cited from earlier work
[5] = target: T2, human NAAA (Homo sapiens, UniProt Q02083); test: h-NAAA inhibition, UPLC-MS-based assay; format: biochemical; conditions: for IC50: h–NAAA IC50 (μM) ± SD, LC/MS method, mean of three or more determinations
T2 sequence (Q02083 29-359): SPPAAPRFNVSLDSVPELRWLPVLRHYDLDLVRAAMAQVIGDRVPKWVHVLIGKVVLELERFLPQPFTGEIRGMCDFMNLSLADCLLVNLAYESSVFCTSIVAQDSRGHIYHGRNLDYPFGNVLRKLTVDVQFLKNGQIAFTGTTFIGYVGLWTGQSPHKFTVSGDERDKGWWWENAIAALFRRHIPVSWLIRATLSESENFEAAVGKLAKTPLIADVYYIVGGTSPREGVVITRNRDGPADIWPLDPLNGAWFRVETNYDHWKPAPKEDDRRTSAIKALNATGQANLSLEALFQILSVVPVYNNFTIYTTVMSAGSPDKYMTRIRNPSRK

[6] = target: T3, human FAAH (Homo sapiens, UniProt O00519); test: h-FAAH inhibition; format: biochemical; conditions: read-out: h–FAAH (% Inhib)
T3 sequence (O00519 1-579): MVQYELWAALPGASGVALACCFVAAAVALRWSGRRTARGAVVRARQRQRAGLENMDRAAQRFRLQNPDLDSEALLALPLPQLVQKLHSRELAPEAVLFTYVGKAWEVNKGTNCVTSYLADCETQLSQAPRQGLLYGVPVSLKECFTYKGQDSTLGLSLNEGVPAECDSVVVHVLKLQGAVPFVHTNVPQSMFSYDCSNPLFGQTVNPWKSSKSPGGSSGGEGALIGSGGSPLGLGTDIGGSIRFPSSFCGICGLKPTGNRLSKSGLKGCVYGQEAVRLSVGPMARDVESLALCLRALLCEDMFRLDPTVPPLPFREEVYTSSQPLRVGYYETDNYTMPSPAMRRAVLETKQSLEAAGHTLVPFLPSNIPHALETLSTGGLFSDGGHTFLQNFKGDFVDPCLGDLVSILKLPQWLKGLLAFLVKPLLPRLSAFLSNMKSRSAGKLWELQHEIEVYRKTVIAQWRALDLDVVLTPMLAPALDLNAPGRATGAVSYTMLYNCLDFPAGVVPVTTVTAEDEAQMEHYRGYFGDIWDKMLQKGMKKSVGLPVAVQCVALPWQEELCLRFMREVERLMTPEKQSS

[7] = target: T4, human AC (Homo sapiens, UniProt Q13510); test: h-AC inhibition, UPLC-MS-based assay; format: biochemical; conditions: for IC50: h–AC IC50 (μM) ± SD, LC/MS method, mean of three or more determinations
T4 sequence (Q13510 22-395): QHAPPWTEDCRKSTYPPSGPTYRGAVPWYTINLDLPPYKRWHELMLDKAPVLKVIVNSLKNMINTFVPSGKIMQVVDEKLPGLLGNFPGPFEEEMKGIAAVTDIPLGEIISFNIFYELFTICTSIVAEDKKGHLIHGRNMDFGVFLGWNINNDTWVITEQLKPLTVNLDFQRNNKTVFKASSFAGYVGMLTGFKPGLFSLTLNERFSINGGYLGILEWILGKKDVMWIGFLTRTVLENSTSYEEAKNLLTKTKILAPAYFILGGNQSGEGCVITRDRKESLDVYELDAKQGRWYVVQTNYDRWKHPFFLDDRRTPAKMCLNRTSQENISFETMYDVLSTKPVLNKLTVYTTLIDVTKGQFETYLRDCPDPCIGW

[8] = Plasma pharmacokinetics in rats after IV or oral dosing; format: in vivo; conditions: rat

SMILES: O=C(CCCCCc1ccccc1)N[C@H]1CNC1=O [Compound 11d, N–[(S)–2–Oxoazetidin–3–yl]–6–phenyl–hexanamide]
IC50 [1]: 12.1 ± 2.18 µM

SMILES: O=C(CCc1ccccc1)N[C@H]1CNC1=O [Compound 11a, 3–Phenyl–N–[(S)–2-oxoazetidin–3–yl]–propanamide]
half-life at 2 µM [2]: > 2 h | half-life at […] [3]: > 2 h

SMILES: O=C(CCCCc1ccccc1)N[C@H]1CNC1=O [Compound 11c, 5–Phenyl–N–[(S)–2–oxoazetidin–3–yl]–pentanamide]
IC50 [1]: 27.2 ± 1.89 µM

SMILES: CCCCCCCNC(=O)N[C@H]1CNC1=O [Compound 33, 1–Heptyl–3–[(S)–2–oxoazetidin–3–yl]–urea]
IC50 [1]: 5.76 ± 0.9 µM

SMILES: CCCCCCCCCCC(=O)N[C@H]1CNC1=O [Compound 11p, N–[(S)–2–Oxoazetidin–3–yl]–undecanamide]
increase in potency toward h–NAAA compared to 11h ([5]; LC/MS assay): ca. 2 fold | IC50 [5]: 0.056 ± 0.01 µM | inhibition at 100 µM [6]: < 10% | increase in potency toward h–AC compared to 11h ([7]; LC/MS assay): ca. 7 fold | IC50 [7]: 0.33 ± 0.1 µM

SMILES: O=C(CCCc1ccccc1)N[C@H]1CNC1=O [Compound 11b, N–[(S)–2-Oxoazetidin–3–yl]–4–phenyl–butanamide]
IC50 [1]: 73.4 ± 10.7 µM

SMILES: CCCCCCCCC(=O)N[C@H]1CNC1=O [Compound 11h, N–[(S)–2–Oxoazetidin–3–yl]–nonanamide]
IC50 [5]: 0.13 ± 0.03 µM | AUC ([8]; iv, 3 mg/kg): 111 ng·h/mL | Cmax ([8]; iv, 3 mg/kg): 397 ng/mL | Tmax ([8]; iv, 3 mg/kg): 4.8 min | clearance ([8]; iv, 3 mg/kg): 702 mL/min/kg | AUC ([8]; po, 10 mg/kg): 247 ng·h/mL | Cmax ([8]; po, 10 mg/kg): 570 ng/mL | inhibition at 100 µM [6]: < 10% | half-life at 2 µM [2]: 1.72 h | selectivity for NAAA vs. AC ([7]; h-AC IC50 / h-NAAA IC50, LC/MS assays): ca. 19 fold | IC50 [7]: 2.53 ± 0.06 µM | half-life at […] [3]: > 2 h

SMILES: CCCCc1ccc(C(=O)N[C@H]2CNC2=O)cc1 [Compound 11k, 4–Butyl–N–[(S)–2–oxoazetidin–3–yl]–benzamide]
IC50 [1]: 13.8 ± 3.41 µM

SMILES: CCCCCCCCC(=O)N[C@@H]1CNC1=O [Compound 12h, N–[(R)–2–Oxoazetidin–3–yl]–nonanamide]
IC50 [5]: 45.5 µM | inhibition at 100 µM [6]: < 10% | IC50 [7]: 27.8 µM | IC50 [1]: 74.5 ± 9.08 µM | loss/drop in potency (h-NAAA) compared to 11h ([1]; fluorogenic assay): > 200 fold

SMILES: CCCCCCC(=O)N[C@H]1CNC1=O [Compound 11f, N–[(S)–2–Oxoazetidin–3–yl]–heptanamide]
IC50 [1]: 27 ± 6.15 µM | drop in potency (h-NAAA) compared to 11e ([1]; fluorogenic assay): > 40 fold

More lines, in order of falling IC50 [1], values ahead:

IC50 [1]: 3.9 ± 0.86 µM | loss/drop in potency (h-NAAA) compared to 11h ([1]; fluorogenic assay): 10 fold
SMILES: CCCCC/C=C\CC(=O)N[C@H]1CNC1=O [Compound 11j, (Z)–N–[(S)–2–Oxoazetidin–3–yl]–non–3–enamide]

IC50 [1]: 3.09 ± 0.5 µM | loss/drop in potency (h-NAAA) compared to 11h ([1]; fluorogenic assay): 10 fold
SMILES: CCCCC/C=C/CC(=O)N[C@H]1CNC1=O [Compound 11i, (E)–N–[(S)–2–Oxoazetidin–3–yl]–non–3–enamide]

IC50 [1]: 1.91 ± 0.28 µM
SMILES: CCCCCCCC(=O)N[C@H]1CNC1=O [Compound 11g, N–[(S)–2–Oxoazetidin–3–yl]–octanamide]

half-life at 2 µM [2]: < 0.0167 h | IC50 [1]: 1.29 µM
SMILES: O=C(CCc1ccccc1)N[C@H]1COC1=O [Compound 1, (S)–N–(2–oxo–3–oxetanyl)–3–phenylpropionamide, reference compound]
IC50 [4]: 0.42 µM

IC50 [1]: 0.6 ± 0.17 µM
SMILES: O=C(CCCCCCc1ccccc1)N[C@H]1CNC1=O [Compound 11e, 7–Phenyl–N–[(S)–2–oxoazetidin–3–yl]–heptanamide]

IC50 [1]: 0.047 ± 0.005 µM
SMILES: C[C@@H]1OC(=O)[C@@H]1NC(=O)OCCCCCc1ccccc1 [Compound 2, 5–phenylpentyl N–[(2S,3R)–2–methyl–4–oxo–oxetan–3–yl]carbamate, reference compound]
IC50 [4]: 0.05 µM
